Source: ChEMBL document CHEMBL4270542, “Synthesis and study of benzofuran-pyran analogs as BMP-2 targeted osteogenic agents” (Eur J Med Chem, 2018)
The source made the active and inactive calls. No cut-off for these calls is given here.

Legend:
Calvarial osteoblast [1] = assay: Cytotoxicity against rat calvarial osteoblast assessed as effect on cell viability at 0.000001 to 100 uM after 48 hrs by MTT assay; assay type: cell-based
Calvarial osteoblast [2] = assay: Induction of osteoblast differentiation in rat calvarial osteoblast assessed as increase in ALP activity using PNPP as substrate measured after 48 hrs; assay type: functional, cell-based; settings: for EC50: Rattus norvegicus, Calvarial osteoblast, 48 h
Calvarial osteoblast [3] = assay: Induction of mineralization in rat calvarial osteoblast at 1 uM supplemented with fresh medium containing compounds every 48 hrs for 21 days by alizarin red-S staining based assay; assay type: functional, cell-based
Calvarial osteoblast [4] = assay: Induction of osteoblast differentiation in rat calvarial osteoblast assessed as increase in BMP2 mRNA expression at 0.01 to 1 uM after 48 hrs by SYBR green dye based qRT-PCR analysis relative to control; assay type: functional
Calvarial osteoblast [5] = assay: Induction of mineralization in rat calvarial osteoblast at 10 nM supplemented with fresh medium containing compounds every 48 hrs for 21 days by alizarin red-S staining based assay; assay type: functional, cell-based
Calvarial osteoblast [6] = assay: Induction of osteoblast differentiation in rat calvarial osteoblast assessed as increase in BMP2 mRNA expression at 0.1 to 10 nM after 48 hrs by SYBR green dye based qRT-PCR analysis relative to control; assay type: functional
Rattus norvegicus [7] = assay: In vivo induction of osteogenesis in rat assessed as increase in OCN mRNA expression at 10 mg/kg, sc administered daily for 5 days by qRT-PCR analysis; assay type: functional, organism-based
Rattus norvegicus [8] = assay: In vivo induction of osteogenesis in rat assessed as increase in COL1 mRNA expression at 2.5 mg/kg, sc administered daily for 5 days by qRT-PCR analysis; assay type: functional, organism-based
Rattus norvegicus [9] = assay: In vivo induction of osteogenesis in rat assessed as increase in BMP2 mRNA expression at 10 mg/kg, sc administered daily for 5 days by qRT-PCR analysis; assay type: functional, organism-based
Calvarial osteoblast [10] = assay: Induction of osteoblast differentiation in rat calvarial osteoblast assessed as increase in BMP2 mRNA expression at 1 to 100 pM after 48 hrs by SYBR green dye based qRT-PCR analysis relative to control; assay type: functional
Calvarial osteoblast [11] = assay: Induction of osteoblast differentiation in rat calvarial osteoblast assessed as increase in Runx2 mRNA expression at 1 pM after 48 hrs by SYBR green dye based qRT-PCR analysis relative to control; assay type: functional
Calvarial osteoblast [12] = assay: Induction of osteoblast differentiation in rat calvarial osteoblast assessed as increase in COL1 mRNA expression at 1 pM after 48 hrs by SYBR green dye based qRT-PCR analysis; assay type: functional, cell-based
Rattus norvegicus [13] = assay: In vivo induction of osteogenesis in rat assessed as increase in BMP2 mRNA expression at 2.5 mg/kg, sc administered daily for 5 days by qRT-PCR analysis; assay type: functional, organism-based
Calvarial osteoblast [14] = assay: Induction of mineralization in rat calvarial osteoblast at 1 pM supplemented with fresh medium containing compounds every 48 hrs for 21 days by alizarin red-S staining based assay; assay type: functional, cell-based
Rattus norvegicus [15] = assay: In vivo induction of osteogenesis in rat assessed as increase in OCN mRNA expression at 5 mg/kg, sc administered daily for 5 days by qRT-PCR analysis; assay type: functional, organism-based
Rattus norvegicus [16] = assay: In vivo induction of osteogenesis in rat assessed as increase in COL1 mRNA expression at 10 mg/kg, sc administered daily for 5 days by qRT-PCR analysis; assay type: functional, organism-based

| EC50 (Calvarial osteoblast [2]) [nM] | Structure (SMILES) | Activity (Calvarial osteoblast [1]) | concentration of maximal effect (Calvarial osteoblast [2]) [µM] | Activity (Calvarial osteoblast [3]) | fold change (FC) (Calvarial osteoblast [4]) | Activity (Calvarial osteoblast [5]) | fold change (FC) (Calvarial osteoblast [6]) | Activity (Rattus norvegicus [7]) | Activity (Rattus norvegicus [8]) | Activity (Rattus norvegicus [9]) | fold change (FC) (Calvarial osteoblast [10]) | fold change (FC) (Calvarial osteoblast [11]) | Activity (Calvarial osteoblast [12]) | Activity (Rattus norvegicus [13]) | Activity (Calvarial osteoblast [14]) | Activity (Rattus norvegicus [15]) | Activity (Rattus norvegicus [16]) |
| --- | --- | --- | --- | --- | --- | --- | --- | --- | --- | --- | --- | --- | --- | --- | --- | --- | --- |
| 7960 | CCc1cc(C2C3=C(CC(C)(C)CC3=O)OC3=C2C(=O)CC(C)(C)C3)cc2cc(C(=O)c3ccc(F)cc3)oc12 | Non-Toxic | 10 | Active | 2 |  |  |  |  |  |  |  |  |  |  |  |  |
| 7.59 | CCc1cc(C2C3=C(CCCC3=O)OC3=C2C(=O)CCC3)cc2cc(C(=O)c3ccc(F)cc3)oc12 | Non-Toxic | 0.01 |  |  | Active | 2 |  |  |  |  |  |  |  |  |  |  |
| 0.000822 | Cc1cc(C2C3=C(CCCC3=O)OC3=C2C(=O)CCC3)cc2cc(C(=O)c3ccc(F)cc3)oc12 | Non-Toxic | 1e-06 |  |  |  |  | Active | Active | Active | 2.5 | 2 | Active | Active | Active | Active | Active |
